Results on 1 molecule are retold here after PMC5510229, “BCAT1 controls metabolic reprogramming in activated human macrophages and is associated with inflammatory diseases” (Nature Communications, 2017).

The test system of series [1] is human monocyte-derived macrophages (hMDMs). As to the kind of experiment: qRT-PCR / Western blot of activation markers in hMDMs. The format is cell-based. In general terms: In qPCR the cycle at which signal appears reflects the starting amount.
A short description of the next series: In vivo pharmacokinetics. The arrangement: species or system ICR mice. Particulars: ICR, mouse, plasma. As to the method:
The experiment was performed by Eurofins Panlabs Inc. Briefly, fasting pharmacokinetic parameters were obtained after administration of 125 mg kg^−1 i.v. or 500 mg kg^−1 p.o ERG240 to ICR mice and blood collection at 3, 10, 30, 60, 120 and 240 min (i.v. dosing) or 10, 30, 60, 120, 240 and 360 min (p.o. dosing). Each animal was subjected to a single blood draw and 3 animals per time point were used. Parameters were obtained from non-compartmental analysis of the plasma data using WinNonlin. Experimental details are provided in Supplementary Methods. […]
In v ivo pharmaco kinetics
ICR mice that have been fasted overnight were administered 125 mg/kg ERG240 i.v. or 500 mg/kg ERG240 p.o. At predetermined time points, mice were sedated under general inhalant anaesthesia (3 % isoflurane) and 300- 400 µL of blood were collected in tubes coated with lithium heparin by cardiac puncture . The plasma was harvested after cent rifugation and kept frozen at - 20 °C until further processing. Proteins present in the plasma were precipitated b y acetonitrile. Specificall y, 50 µL of plasm a samples were trans ferred to a 9 6-well plate and 10 µL of a acetonitrile/water 50/50 (v/v) solution was added to each well. At this point, 150 μ L of 1 ng/μ L of aspirin in acetonitrile were also added as internal standard. After sample mixing and centrifugation, 100 µL supernatant were withdrawn from each well and mixed with […] w ater for HP LC -MS/MS analysis. Sample anal ysis b y HPLC -MS/MS employed a Agilent Poroshell 120 EC-C18 column 2.7μm (3.0 x 50mm) and a gradient elution with two mobile phases (A: acetonitrile/water/formic acid 99/1/0.02 (v/v/v);
B:acetonitrile/water/formic acid 1/99/0.02 (v/v/v)). A volume of […] of sample were injected into the column and the sample concentration was determined by employing calibration curves that were generated prior to sample anal ysis b y spiking drug- free plasma with specified concentrations of ERG240. The quantitation range was 5- 10000 ng/mL.
Following sample analysis, plots of plasma concentration of ERG240 vs. time were constructed. Fundamental pharmacokinetic parameters were calculated from the non-compartmental analysis of the plasma data using WinNonlin. […]
Pannus: 0=Normal; 1=Minimal infiltration of pannus in cartilage and subchondral bone; 2=Mild infiltration of pannus in cartilage with marginal zone destruction of hard tissue in affected joints; 3=Moderate infiltration of pannus in cartilage with moderate hard tissue destruction in affected joints; 4=Marked infiltration of pannus in cartilage with marked destruction of joint architecture, most joints; 5=Severe infiltration associated with total or near total destruction of joint architecture, all joints. Cartilage Damage: 0=Normal;

Where [2] appears, read: LPS 100 ng/ml + ERG240 20 mM, 3 h, qRT-PCR.

Take `CC(=O)C(C)CCC(=O)O` (stereo not shown) [ERG240]: in series [1] (setting [2]), the NOS2 expression levels entry is given as “significantly reduced” and the TNF expression levels entry was “significantly reduced”. Besides, the “IL-1β levels, long-term exposure” value in series [1] (LPS + ERG240 20 mM, 24 h, Western blot) is on record as “reduced IL-1β levels”. The “IRG1 expression in TNF-stimulated human macrophages” value in series [1] (TNF 2 ng/ml, ERG240 20 mM, 8 h) is given as “comparable inhibitory effect”. In “In vivo pharmacokinetics” (IV 125 mg kg^−1, mice), this molecule displayed an AUC(0-inf) of 149 µg·h/mL, an AUC(0-t) of 149 µg·h/mL, a C0 of 231 µg/mL and an MRT of 33 min. In “In vivo pharmacokinetics” (IV 125 mg kg^−1, mice), the clearance is 2.74 L/h/kg and the half-life is 7.2 min. In “In vivo pharmacokinetics” (oral 500 mg kg^−1, mice), this molecule showed an AUC(0-inf) of 794 µg·h/mL, an AUC(0-t) of 794 µg·h/mL, a Cmax of 351 µg/mL and an MRT of 74.4 min. Besides, the Tmax in “In vivo pharmacokinetics” (oral 500 mg kg^−1, mice) was determined as 60 min. Also, in the series “In vivo pharmacokinetics” (oral 500 mg kg^−1, mice, read-out: F (bioavailability)), the bioavailability came to 100%.

In general, AUC(0-inf) refers to total exposure, with the tail of the curve extrapolated. A higher AUC(0-inf) goes with high exposure. In general, AUC(0-t) refers to exposure summed from dosing to a finite time, without extrapolation to infinity. High values mean more exposure, low ones less exposure. By MRT is commonly meant the average time that molecules of a dose stay in the body. For orientation: clearance means the rate of elimination divided by the concentration. Usually half-life stands for the time in which the quantity being followed falls by half. A high value points to slow decline. Broadly, the Cmax is the highest concentration seen after dosing. One may read the Tmax as the time from dosing to the highest level. In general, bioavailability refers to the share of a dose that reaches the circulation, judged against a reference dose that is usually intravenous.
